Source: ChEMBL document CHEMBL1201862, “PubChem BioAssay data set” (2004)
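Method: 48-hour compound exposure of cells in 96-well plates, five concentrations, linear interpolation of endpoints. GI50 marks 50% less growth.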 Active and inactive are the calls of the source. No stated cut-off is given here; in the data, active = GI50 up to about 1.1 µM and inactive = higher.

How the values were obtained:
Assay in all cases: NCI anticancer screen, dose series, 48 h
[1] = test system: OVCAR-5
[2] = test system: IGROV-1
[3] = test system: HCT-116
[4] = test system: SR
[5] = test system: SNB-19
[6] = test system: SNB-75
[7] = test system: EKVX
[8] = test system: NCI-H522
[9] = test system: TK-10
[10] = test system: UO-31
[11] = test system: A549
[12] = test system: OVCAR-4
[13] = test system: RPMI-8226
[14] = test system: SK-MEL-2
[15] = test system: SK-MEL-28
[16] = test system: NCI-H460
[17] = test system: MCF7
[18] = test system: NCI/ADR-RES
[19] = test system: Hs-578T
[20] = test system: MDA-MB-231

Measured: GI50

O=C(Nc1ccc(Cl)cc1)c1cc([N+](=O)[O-])ccc1O
inactive: [1] 4.53 µM | [2] 3.27 µM | [3] 3.37 µM | [4] 5.57 µM | [5] 3.77 µM | [6] 3.84 µM | [7] 3.85 µM | [8] 2.09 µM | [9] 5.58 µM | [10] 2.6 µM | [11] 4.62 µM | [12] 4.52 µM | [13] 2.33 µM | [14] 2.61 µM | [15] 3.33 µM | [16] 3.01 µM

O=C(Cn1c2c(c3ccccc31)CCCC2)N1CCCC1
inactive: [1] > 100 µM | [2] > 100 µM | [3] 63.1 µM | [4] 88.9 µM | [5] > 100 µM | [7] > 100 µM | [9] > 100 µM | [10] 38.4 µM | [11] > 100 µM | [12] 27.4 µM | [17] > 100 µM | [18] 96.4 µM | [13] > 100 µM | [14] > 100 µM | [15] > 100 µM | [19] 22.8 µM | [16] > 100 µM

S=c1nc(Nc2ccc(Cl)cc2)c2c3c(sc2[nH]1)CCCC3
inactive: [1] > 100 µM | [2] > 100 µM | [20] > 100 µM | [3] > 100 µM | [4] > 100 µM | [5] > 100 µM | [7] > 100 µM | [8] 37 µM | [9] > 100 µM | [10] > 100 µM | [12] > 100 µM | [17] 90.2 µM | [13] 24.4 µM | [14] > 100 µM | [15] > 100 µM | [19] > 100 µM | [16] > 100 µM

Nc1ncnc2c1nc(O)n2-c1ccccc1
inactive: [1] > 100 µM | [2] > 100 µM | [3] > 100 µM | [4] > 100 µM | [5] > 100 µM | [7] 93.8 µM | [9] > 100 µM | [10] 57.7 µM | [11] > 100 µM | [12] > 100 µM | [17] > 100 µM | [18] > 100 µM | [13] > 100 µM | [14] > 100 µM | [15] > 100 µM | [19] > 100 µM | [16] > 100 µM

O=C1COc2cc(NC(=S)Nc3ccccc3)ccc2N1
inactive: [1] > 100 µM | [2] > 100 µM | [3] > 100 µM | [4] > 100 µM | [5] > 100 µM | [6] > 100 µM | [7] > 100 µM | [8] > 100 µM | [9] > 100 µM | [10] > 100 µM | [11] > 100 µM | [12] > 100 µM | [13] > 100 µM | [14] > 100 µM | [15] > 100 µM | [16] > 100 µM

C=CCC(SC)C1=C(C)C(=O)c2ccccc21 (stereo unspecified)
inactive: [1] > 10 µM | [2] > 10 µM | [20] > 10 µM | [4] > 10 µM | [5] > 10 µM | [7] > 10 µM | [9] > 10 µM | [10] > 10 µM | [11] > 10 µM | [17] > 10 µM | [13] > 10 µM | [14] > 10 µM | [15] > 10 µM | [16] > 10 µM

N#Cc1c(-c2ccccc2)c(/C=N/c2cccc(C(F)(F)F)c2)c(=O)n2c1[nH]c1ccccc12
inactive: [1] 10.8 µM | [2] 29.2 µM | [20] 42.3 µM | [3] 29.6 µM | [5] 30.5 µM | [6] 46 µM | [7] 19.1 µM | [8] 15.1 µM | [9] 32.9 µM | [10] 7.62 µM | [11] 23.6 µM | [12] 51.1 µM | [17] 35.6 µM | [18] 25.1 µM | [13] 6.35 µM | [14] 22.1 µM | [15] 59 µM | [16] 14.5 µM

Cc1nc2ccccc2c(=O)n1NC(=O)c1ccc(N)cc1
inactive: [1] > 100 µM | [2] > 100 µM | [20] > 100 µM | [3] > 100 µM | [4] > 100 µM | [5] > 100 µM | [6] 14.6 µM | [7] > 100 µM | [8] > 100 µM | [9] > 100 µM | [10] > 100 µM | [11] > 100 µM | [12] > 100 µM | [17] > 100 µM | [13] > 100 µM | [15] > 100 µM | [16] > 100 µM

CCNCCNC(=O)c1ccc(I)cc1
inactive: [1] > 100 µM | [2] > 100 µM | [4] > 100 µM | [5] > 100 µM | [6] 34.4 µM | [7] > 100 µM | [9] > 100 µM | [10] 58.6 µM | [11] > 100 µM | [12] > 100 µM | [17] > 100 µM | [18] > 100 µM | [13] > 100 µM | [15] > 100 µM | [19] 81.8 µM | [16] > 100 µM

C(=N\c1ccc(-c2nc3ccccc3s2)cc1)/c1ccc[nH]1
inactive: [1] 22 µM | [2] 15.1 µM | [3] 16.1 µM | [4] 21.4 µM | [5] 29.4 µM | [6] 22.2 µM | [7] 17.2 µM | [8] 14.1 µM | [9] 31.8 µM | [10] 17.4 µM | [11] 25.6 µM | [12] 23.8 µM | [18] 13.3 µM | [13] 15.5 µM | [14] 17.3 µM | [15] 20.1 µM | [19] 19.7 µM | [16] 17.1 µM

[O-][N+]1=C(c2ccccc2)/C(=C2/C(c3ccccc3)=[N+]([O-])c3ccccc32)Cc2ccccc21
inactive: [1] 33.6 µM | [2] 16.4 µM | [20] 13.6 µM | [3] 17.1 µM | [5] 19 µM | [6] 15.5 µM | [7] 20.4 µM | [8] 15.3 µM | [9] 18.2 µM | [10] 14.5 µM | [11] 13.8 µM | [12] 13.8 µM | [17] 43.4 µM | [18] 15.7 µM | [13] 21.1 µM | [14] 16.1 µM | [15] 22.3 µM

Cc1ccc(NC2=CC(=O)C(NO)c3ccccc32)cc1 (stereo unspecified)
inactive: [1] 8.59 µM | [2] 1.53 µM | [20] 2.21 µM | [3] 2.47 µM | [5] 3.18 µM | [6] 3.37 µM | [7] 2.15 µM | [9] 16.8 µM | [10] 2.82 µM | [11] 3.09 µM | [12] 2.99 µM | [17] 2.66 µM | [18] 2.08 µM | [14] 2.23 µM | [15] 8.13 µM | [16] 3.22 µM

O=C1NC2(CCCCC2)C2CCCCC=C12 (stereo unspecified)
inactive: [1] > 100 µM | [2] > 100 µM | [3] > 100 µM | [4] > 100 µM | [5] > 100 µM | [6] > 100 µM | [7] > 100 µM | [8] > 100 µM | [9] > 100 µM | [10] > 100 µM | [11] > 100 µM | [12] > 100 µM | [13] > 100 µM | [14] > 100 µM | [15] > 100 µM | [16] > 100 µM

O=C(OCC(Cl)(Cl)Cl)N1CC[C@@H](C2CCCCC2)C1
inactive: [1] 23.7 µM | [2] 75.5 µM | [20] 43.3 µM | [3] 29.6 µM | [4] 32.2 µM | [5] 19.7 µM | [6] 21.7 µM | [7] 23.1 µM | [8] 21.7 µM | [9] 30.1 µM | [10] 20.7 µM | [11] 27.3 µM | [12] 18.6 µM | [17] 22.1 µM | [18] 18 µM | [14] 18.3 µM | [16] 21 µM

COc1cccc(C23CCCC(C2)N(C)CC3OC(=O)c2ccccc2)c1OC (stereo unspecified)
inactive: [1] 26.4 µM | [2] 15.6 µM | [3] 20 µM | [4] 16.2 µM | [5] 35.6 µM | [7] 24.5 µM | [8] 22.6 µM | [10] > 100 µM | [11] 41 µM | [12] 24 µM | [17] 27.4 µM | [18] 20.7 µM | [13] 18.6 µM | [14] 31.8 µM | [15] 28 µM | [19] 24.4 µM | [16] 20.6 µM

COc1cccc(/C=N\NC(=O)C(C)SC(C)C(=O)N/N=C/c2cccc(OC)c2)c1 (stereo unspecified)
inactive: [1] 53.8 µM | [2] 20.3 µM | [3] 18.4 µM | [4] 40.5 µM | [5] 20.8 µM | [6] 16.9 µM | [7] 27 µM | [8] 22.3 µM | [9] 19.1 µM | [10] 41 µM | [11] 14.6 µM | [12] 16.8 µM | [13] 32.7 µM | [14] 39.2 µM | [15] 36.6 µM | [16] 14.9 µM

Cc1cc(N(CCC#N)CCC#N)ccc1/C=C(\N=[N+]=[N-])C(=O)NC(=O)COc1ccccc1
inactive: [1] > 100 µM | [2] > 100 µM | [3] > 100 µM | [4] > 100 µM | [5] > 76.6 µM | [6] > 44 µM | [7] > 100 µM | [8] > 100 µM | [9] > 100 µM | [10] > 100 µM | [11] > 100 µM | [12] > 100 µM | [13] > 100 µM | [14] > 73.3 µM | [15] > 100 µM | [16] > 100 µM
